Measurements published in the supplement of paper PMC8612539.
In brackets after ≈: the same amount, converted by molar mass.

Tested on: Escherichia coli
Assay: minimum inhibitory concentration (MIC)
Description: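 Broth microdilution MIC (Sensititre BOPO7F bovine plate, CLSI methods) of 19 antimicrobials against field isolates of P. multocida, M. haemolytica, H. somni (deep nasopharyngeal swabs) and E. coli, Enterococcus spp. (rectal swabs) from weaned dairy heifers. Incubation 16-24 h at 35 C. MIC is the lowest concentration preventing visible growth. Values with <= or > lie at the tested range limits. Trimethoprim-sulfamethoxazole is given as the trimethoprim component of a 1:19 mixture.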

CN1C[C@@H]2C[C@H]1CN2c1cc2c(cc1F)c(=O)c(C(=O)O)cn2C1CC1 [Danofloxacin]
Details	minimum inhibitory concentration [µg/mL]
isolate (source animal id): 8	≤ 0.12
isolate (source animal id): 9	> 1
isolate (source animal id): 10	≤ 0.12
isolate (source animal id): 11	≤ 0.12
isolate (source animal id): 12	> 1
isolate (source animal id): 13	≤ 0.12
isolate (source animal id): 14	0.5 (≈ 1.4 µM)
isolate (source animal id): 15	≤ 0.12
isolate (source animal id): 16	≤ 0.12
isolate (source animal id): 98	≤ 0.12
isolate (source animal id): 99	≤ 0.12
isolate (source animal id): 100	≤ 0.12
isolate (source animal id): 101	≤ 0.12
isolate (source animal id): 102	≤ 0.12
isolate (source animal id): 103	≤ 0.12
isolate (source animal id): 104	≤ 0.12
isolate (source animal id): 105	≤ 0.12
isolate (source animal id): 106	> 1
isolate (source animal id): 107	≤ 0.12
isolate (source animal id): 108	≤ 0.12
isolate (source animal id): 109	≤ 0.12
isolate (source animal id): 110	≤ 0.12
isolate (source animal id): 111	> 1
isolate (source animal id): 112	≤ 0.12
isolate (source animal id): 113	> 1
isolate (source animal id): 114	≤ 0.12
isolate (source animal id): 115	1 (≈ 2.8 µM)
isolate (source animal id): 116	> 1
isolate (source animal id): 117	≤ 0.12
isolate (source animal id): 118	0.5 (≈ 1.4 µM)
isolate (source animal id): 119	> 1
isolate (source animal id): 120	1 (≈ 2.8 µM)
isolate (source animal id): 121	≤ 0.12
isolate (source animal id): 122	≤ 0.12
isolate (source animal id): 123	≤ 0.12
isolate (source animal id): 124	> 1
isolate (source animal id): 125	≤ 0.12
isolate (source animal id): 126	> 1
isolate (source animal id): 127	≤ 0.12
isolate (source animal id): 128	≤ 0.12
isolate (source animal id): 129	1 (≈ 2.8 µM)
isolate (source animal id): 130	≤ 0.12
isolate (source animal id): 131	> 1
isolate (source animal id): 132	0.5 (≈ 1.4 µM)
isolate (source animal id): 133	≤ 0.12
isolate (source animal id): 134	≤ 0.12
isolate (source animal id): 135	≤ 0.12
isolate (source animal id): 136	≤ 0.12
isolate (source animal id): 137	1 (≈ 2.8 µM)
isolate (source animal id): 138	> 1
isolate (source animal id): 139	0.25 (≈ 0.7 µM)
isolate (source animal id): 140	≤ 0.12
isolate (source animal id): 141	≤ 0.12
isolate (source animal id): 142	≤ 0.12
isolate (source animal id): 143	1 (≈ 2.8 µM)
isolate (source animal id): 144	> 1
isolate (source animal id): 145	≤ 0.12
isolate (source animal id): 146	0.5 (≈ 1.4 µM)
isolate (source animal id): 147	> 1
isolate (source animal id): 148	0.25 (≈ 0.7 µM)
isolate (source animal id): 149	≤ 0.12
isolate (source animal id): 150	≤ 0.12
isolate (source animal id): 151	≤ 0.12
isolate (source animal id): 152	≤ 0.12
isolate (source animal id): 153	≤ 0.12
isolate (source animal id): 154	0.5 (≈ 1.4 µM)
isolate (source animal id): 155	≤ 0.12
isolate (source animal id): 156	0.5 (≈ 1.4 µM)
isolate (source animal id): 157	≤ 0.12
isolate (source animal id): 158	≤ 0.12
isolate (source animal id): 159	≤ 0.12
isolate (source animal id): 160	≤ 0.12
isolate (source animal id): 161	≤ 0.12
isolate (source animal id): 162	> 1
isolate (source animal id): 163	≤ 0.12
isolate (source animal id): 164	≤ 0.12
isolate (source animal id): 165	≤ 0.12
isolate (source animal id): 166	≤ 0.12
isolate (source animal id): 167	≤ 0.12
isolate (source animal id): 168	≤ 0.12
isolate (source animal id): 169	≤ 0.12
isolate (source animal id): 170	≤ 0.12
isolate (source animal id): 171	≤ 0.12
isolate (source animal id): 172	≤ 0.12
isolate (source animal id): 173	≤ 0.12
isolate (source animal id): 174	≤ 0.12
isolate (source animal id): 175	≤ 0.12
isolate (source animal id): 176	≤ 0.12
isolate (source animal id): 177	≤ 0.12
isolate (source animal id): 178	≤ 0.12
isolate (source animal id): 179	≤ 0.12
isolate (source animal id): 180	≤ 0.12
isolate (source animal id): 181	≤ 0.12
isolate (source animal id): 182	≤ 0.12
isolate (source animal id): 183	≤ 0.12
isolate (source animal id): 184	≤ 0.12
isolate (source animal id): 185	≤ 0.12
isolate (source animal id): 186	≤ 0.12
isolate (source animal id): 187	≤ 0.12
isolate (source animal id): 188	> 1
